In patent publication US20250101062A1, “ANTIMICROBIAL PEPTIDES” (Board of Regents of the University of Nebraska, priority 2023, published 2025):
Values after ≈ are worked out from the molar mass of the structure shown. Like-named read-outs stand apart in the source and are kept apart here. Where a SMILES comes first, the peptide text is derived from it. Where no end group is shown, it is not given here.

What was measured:
S. aureus USA300 LAC = assay: microbe, parasite or virus in culture; assay type: cell-based, Staphylococcus aureus
Protocol: (§1) The following resistant bacterial clinical strains were used in this study: S. aureus USA300 LAC, S. epidermidis 1457, E. coli E423-17, P. aeruginosa E411-17, K. pneumoniae E406-17, and A. baumannii B28-16. While the S. aureus USA300 strain is methicillin-resistant, most of the Gram-negative bacteria contain extended-spectrum beta-lactamase and are resistant to beta-lactam antibiotics. Peptide activity against bacteria was tested using an established lab protocol (Mishra, et al. (2017) Acta Biomater., 49:316-328). In brief, a peptide concentration gradient with twofold dilution was made in the 96-well polystyrene microplate at 10 μL per well. Bacteria were grown to the exponential phase (i.e., optical density at 600 nm≈0.5), diluted to ˜10^5 CFU/mL in different percentages of MHB, TSB, or LB, and partitioned into the 96-well microplate at 90 μL per well. […] They were diluted with autoclaved distilled water to obtain different percentages. The microplates were incubated at 37° C. overnight and read on a ChroMate™ 4300 microplate reader at 600 nm (GMI, Ramsey, MN). The peptide concentration in the wells without bacterial growth is the MIC. As is the convention, MIC values were represented as ranges.
(§2) For pH effects on peptide activity, the pH of the medium was adjusted to a targeted pH for the autoclave and then remeasured at room temperature. For salt and serum effects on peptide activity, stock NaCl solution or human serum was added to the media.
(§3) Peptide activity against bacteria were tested using the CLSI standard procedure with minor modifications (Clinical and Laboratory Standards Institute (2018) Performance standards for antimicrobial susceptibility testing, 9th ed.; Mishra, et al. (2019) Proc. Natl. Acad. Sci., 116(27):13517-13522). In brief, a peptide concentration gradient with twofold dilution was made in the 96-well polystyrene microplate at 10 μL per well. Bacteria were grown to the exponential phase (i.e., optical density at 600 nm≈0.5), diluted to ˜10^5 CFU/mL in MHB, and partitioned into the 96-well microplate at 90 μL per well. The microplates were incubated at 37° C. overnight and read on a ChroMate® 4300 Microplate Reader at 600 nm (GMI, Ramsey, MN). The peptide concentration in the wells without bacterial growth is the minimal inhibitory concentration (MIC). As the convention, MIC values were represented as ranges.
(§4) For pH effects on peptide activity, the pH of the medium was adjusted to a targeted pH for autoclave and then remeasured at room temperature. For salt and serum effects on peptide activity, stock NaCl solution or human serum were added to the media.

E. coli E423-17 = assay type: cell-based, Escherichia coli
Protocol: as §1, §2, §3, §4

S. epidermidis 1457 = assay: microbe, parasite or virus in culture; assay type: cell-based, Staphylococcus epidermidis; conditions: read-out: Antimicrobial activity (MIC) S. epidermidis 1457
Protocol: as §1, §3

A. baumannii B28-16 = assay type: cell-based, Acinetobacter baumannii; conditions: B28-16
Protocol: as §1, §3

P. aeruginosa E411-17 = assay: microbe, parasite or virus in culture; assay type: cell-based, Pseudomonas aeruginosa; conditions: for MIC: read-out: Antimicrobial activity (MIC)
Protocol: as §1, §2, §3, §4

E. coli = conditions: data from the antimicrobial peptide database; cited from earlier work
K. pneumoniae E406-17 = assay type: cell-based, Klebsiella pneumoniae
Protocol: as §1, §3

[1] = Effect of MHB dilution on antibacterial activity of a panel of antibiotics; assay type: cell-based; conditions: MHB from 100 to 12.5%
Protocol: FIGS. 2A-2D show biofilm disruption activity of human LL-37 (FIGS. 2A and 2B) and 17BIPHE2 (FIGS. 2C and 2D) against the 24 hour preformed biofilms of S. aureus USA300 LAC in different MHB media: 12.5% MHB (FIGS. 2A and 2C) and 100% MHB (FIGS. 2B and 2D). FIGS. 2E-2H show the treatment outcome of LL-37 (FIGS. 2E and 2F) and 17BIPHE2 (FIGS. 2G and 2H) against the 24-hour preformed biofilms of E. coli E423-17 in different MHB media: 12.5% MHB (FIGS. 2E and 2G) and 100% MHB (FIGS. 2F and 2H). […] Growth curves of S. aureus USA 300 LAC (FIGS. 2J-2K) and P. aeruginosa 152 (FIGS. 2L-2M) in 12.5%, 25%, 50% and 100% MHB or TSB medium (curves from bottom to top).
The effects of MHB dilution on the antimicrobial activity of a panel of antibiotics was also compared (FIG. 2I).

[2] = USA300, read-out: Antimicrobial activity (MIC)

CCCCCCCCCC(=O)N[C@H](CCCCN)C(=O)N[C@H](CCCNC(=N)N)C(=O)N[C@@H](C(=O)N[C@@H](C(=O)N[C@H](CCC(N)=O)C(=O)N[C@H](CCCNC(=N)N)C(=O)N[C@@H](C(=O)N[C@H](CCCCN)C(N)=O)[C@H](C)CC)C(C)C)[C@H](C)CC [C10-KR8, reference compound] (HELM PEPTIDE1{[CCCCCCCCCC(=O)[*:2]].[dK].[dR].[dI].[dV].[dQ].[dR].[dI].[dK].[am]}$$$$V2.0; N-terminus and C-terminus assumed)
MIC (S. aureus USA300 LAC; USA300, pH 6.21, read-out: Antimicrobial activity (MIC)): 8 µM (≈ 9.55 µg/mL)
MIC (S. aureus USA300 LAC; USA300, pH 7.22, read-out: Antimicrobial activity (MIC)): 4 µM (≈ 4.77 µg/mL)
MIC (S. aureus USA300 LAC; USA300, pH 8.13, read-out: Antimicrobial activity (MIC)): 2 µM (≈ 2.39 µg/mL)
MIC (S. aureus USA300 LAC; [2]): 4 µM (≈ 4.77 µg/mL)
MIC (S. aureus USA300 LAC; USA300, read-out: Antimicrobial activity (MIC) S. aureus USA300): 4 µM (≈ 4.77 µg/mL)
Antimicrobial activity (MIC) E. coli E423-17 (E. coli E423-17; E423-17): 8 µM
MIC (S. epidermidis 1457): 4 µM (≈ 4.77 µg/mL)
Antimicrobial activity (MIC) A. baumannii B28-16 (A. baumannii B28-16): 4 µM
Antimicrobial activity (MIC) P. aeruginosa E411-17 (P. aeruginosa E411-17; E411-17): 8 µM
MIC (P. aeruginosa E411-17; E411-17, pH 6.21): 16 µM (≈ 19.1 µg/mL)
Antimicrobial activity (MIC) (P. aeruginosa E411-17; E411-17, pH 7.22): 4 to 8 µM
MIC (P. aeruginosa E411-17; E411-17, pH 8.13): 4 µM (≈ 4.77 µg/mL)
MIC (P. aeruginosa E411-17; E411-17): 16 µM (≈ 19.1 µg/mL)

RWKFGKKLERMGKRIFKATEKGLPVATGVAALARG (Tunga penetrans) [Tpen-cec]
MIC against E. coli (E. coli): 8 µg/mL

KRWWQWWK-NH2 [W542]
Activity (MIC) K. pneumoniae (K. pneumoniae E406-17): >32 µM
Activity (MIC) P. aeruginosa (P. aeruginosa E411-17; E411-17): 4 to 8 µM

GIWSSIKNLASKAWNSDIGQSLRNKAAGAINKFVADKIGVTPSQAAS (vaejovis mexicanus) [Vejovine]
MIC against E. coli (E. coli): 4.4 to 20 µM

CC(=O)NC[C@H]1CN(c2ccc(N3CCOCC3)c(F)c2)C(=O)O1 [Linezolid]
MIC (S. aureus USA300 LAC; Staphylococcus aureus, MRSA / USA300, MRSA in MHB, 20% serum, read-out: Antimicrobial activity (MIC)): 8 to 16 µM (≈ 2.7 to 5.4 µg/mL)
MIC (S. aureus USA300 LAC; Staphylococcus aureus, MRSA / USA300, MRSA in MHB, NaCl (150 mM), read-out: Antimicrobial activity (MIC)): 8 µM (≈ 2.7 µg/mL)
change in MIC with dilution of MHB [1]: essentially no changes

FKRIVQRIKDFLRNLV [FK-16, reference compound]
Antimicrobial activity (MIC) (S. aureus USA300 LAC; MHB 12.5%): active
Antimicrobial activity (MIC) (S. aureus USA300 LAC; MHB 100%): active
Antimicrobial activity (MIC) (E. coli E423-17; MHB 12.5%): active
Antimicrobial activity (MIC) (E. coli E423-17; MHB 100%): active

RWKIFKRIEKVGRNVRDGVIKAGPAVAVLGQAKALGK (listed as Phyllodes eyndhovii) [Peyn-cec]
MIC against E. coli (E. coli): 8 µg/mL

KWKFGKKLERIGQNVFRAAEKVLPVATGYAQLPATLAGAKQG (listed as Panorpa sp.) [Pvul-cec]
MIC against E. coli (E. coli): 8 µg/mL

CN[C@H](CC(C)C)C(=O)N[C@H]1C(=O)N[C@@H](CC(N)=O)C(=O)N[C@H]2C(=O)N[C@H]3C(=O)N[C@H](C(=O)N[C@H](C(=O)O)c4cc(O)cc(O)c4-c4cc3ccc4O)[C@H](O)c3ccc(c(Cl)c3)Oc3cc2cc(c3O[C@@H]2O[C@H](CO)[C@@H](O)[C@H](O)[C@H]2O[C@H]2C[C@](C)(N)[C@H](O)[C@H](C)O2)Oc2ccc(cc2Cl)[C@H]1O [Vancomycin]
MIC (S. aureus USA300 LAC; Staphylococcus aureus, MRSA / USA300, pH 6.3, read-out: Antimicrobial activity (MIC), MRSA in MHB, pH 6.3): 0.5 µM (≈ 0.725 µg/mL)
MIC (S. aureus USA300 LAC; Staphylococcus aureus, MRSA / USA300, pH 7.2, read-out: Antimicrobial activity (MIC), MRSA in MHB, pH 7.2): 0.5 µM (≈ 0.725 µg/mL)
MIC (S. aureus USA300 LAC; Staphylococcus aureus, MRSA / USA300, read-out: Antimicrobial activity (MIC), MRSA in MHB, 10% serum): 0.5 µM (≈ 0.725 µg/mL)
MIC (S. aureus USA300 LAC; Staphylococcus aureus, MRSA / USA300, read-out: Antimicrobial activity (MIC), MRSA in MHB, 20% serum): 0.5 to 1 µM (≈ 0.725 to 1.45 µg/mL)
MIC (S. aureus USA300 LAC; Staphylococcus aureus, MRSA / USA300, read-out: Antimicrobial activity (MIC), MRSA in MHB, NaCl (150 mM)): 0.5 to 1 µM (≈ 0.725 to 1.45 µg/mL)
change in MIC with dilution of MHB [1]: essentially no changes

KRWWQRWK-NH2 [W541]
Activity (MIC) S. aureus (S. aureus USA300 LAC; USA300): >32 µM
Activity (MIC) E.coli (E. coli E423-17; KR-8 series, Table 3): 8 µM
Activity (MIC) K. pneumoniae (K. pneumoniae E406-17): >32 µM
Activity (MIC) A. baumannii (A. baumannii B28-16): >32 µM
Activity (MIC) P. aeruginosa (P. aeruginosa E411-17; E411-17): >32 µM

C/C(=C\C(=O)OCCCCCCCCC(=O)O)C[C@@H]1OC[C@H](C[C@@H]2O[C@H]2[C@@H](C)[C@H](C)O)[C@@H](O)[C@H]1O [Muporicin]
change of MIC / activity (S. aureus USA300 LAC; MRSA in MHB, 10% human serum): fourfold
Antimicrobial activity (MIC) (S. aureus USA300 LAC; MRSA in MHB, 10% serum): 4 µM
Antimicrobial activity (MIC) (S. aureus USA300 LAC; MRSA in MHB, 20% serum): 4 µM
Antimicrobial activity (MIC) (S. aureus USA300 LAC; MRSA in MHB, NaCl (150 mM)): 1 µM
Antimicrobial activity (MIC) (S. aureus USA300 LAC; MRSA in MHB, pH 6.3): 0.5 µM
Antimicrobial activity (MIC) (S. aureus USA300 LAC; MRSA in MHB, pH 7.2): 1 µM
change in MIC with dilution of MHB [1]: essentially no changes

LRNLVPRTES-NH2 (C-terminus assumed) [LR-10]
MIC (S. aureus USA300 LAC; [2]): >64 µM
Antimicrobial activity (MIC) (E. coli E423-17; E423-17): >64 µM
